Assay results taken from patent US12448394B2, “Heterocyclic pyrazole derivatives as type III receptor tyrosine kinase inhibitors” (DEVELOPMENT CENTER FOR BIOTECHNOLOGY, priority 2019, dated 2025).
Where two headings read alike, the source gives them in different places.

How the values were obtained:
[1] = tested on: phosphorylation of FLT3 and its down-stream effector STAT5; experiment: Western blotting of p-FLT3 and p-STAT5 in MV4-11 cells; assay type: cell-based; settings: Homo sapiens; at 30 nM treatment, 3 hours, FLT3-ITD positive MV4-11 leukemia cells; read-out: inhibition activity against phosphorylation of FLT3 and its down-stream effector STAT5
Description: The potent compounds of formula (I) in EXAMPLE 2 were evaluated, by western blotting assay, for their cellular potencies against phosphorylation of FLT3 and its down-stream effector STAT5 in MV4-11 leukemia cell line with constitutive activation of FLT3 signaling. For western blotting experiments, MV4-11 cells were cultured in IMDM medium containing 0.1% FBS overnight. On the assay day, three million cells were treated with or without compounds for 3 hours in 15 mL tubes. Then, the whole cell lysates were harvested, following extraction by adding 2×SDS Sample Buffer and boiling on hot plate at 105° C. for 15 minutes. The resulting cell lysates were separated by SDS-PAGE electrophoresis and transferred to PVDF membrane. Protein expression was detected using immunoblot with corresponding primary antibody and secondary antibody following the standard procedures. Antibody against p-FLT3 (Tyr-591), anti-rabbit IgG HRP-linked secondary antibody, and anti-mouse IgG HRP-linked secondary antibody were purchased from Cell Signaling Technology. Antibody against p-STAT5 (Tyr-694) was purchased from BD biosciences. Antibody against actin was purchased from R&D system. […] Band intensities of western blot were also quantified by ChemiDoc™ MP Imaging System. Relative intensities of bandscorresponding to drug treatments at a single concentration (30 nM) were compared to the DMSO control group. The percentage (%) inhibition at each drug concentration was calculated using the formula: Percentage(%)inhibition=(1−Relative intensity)×100.

FLT3-D835Y mutant kinase = molecular target: T1, FLT3-D835Y mutant kinase (Homo sapiens, UniProt P36888, D835Y); experiment: FLT3-D835Y mutant kinase assay (AlphaScreen); assay type: biochemical; settings: read-out: Ranking of IC50 values, FLT3-D835Y
T1 construct: purchased SignalChem
T1 sequence (P36888 27-993 D835Y): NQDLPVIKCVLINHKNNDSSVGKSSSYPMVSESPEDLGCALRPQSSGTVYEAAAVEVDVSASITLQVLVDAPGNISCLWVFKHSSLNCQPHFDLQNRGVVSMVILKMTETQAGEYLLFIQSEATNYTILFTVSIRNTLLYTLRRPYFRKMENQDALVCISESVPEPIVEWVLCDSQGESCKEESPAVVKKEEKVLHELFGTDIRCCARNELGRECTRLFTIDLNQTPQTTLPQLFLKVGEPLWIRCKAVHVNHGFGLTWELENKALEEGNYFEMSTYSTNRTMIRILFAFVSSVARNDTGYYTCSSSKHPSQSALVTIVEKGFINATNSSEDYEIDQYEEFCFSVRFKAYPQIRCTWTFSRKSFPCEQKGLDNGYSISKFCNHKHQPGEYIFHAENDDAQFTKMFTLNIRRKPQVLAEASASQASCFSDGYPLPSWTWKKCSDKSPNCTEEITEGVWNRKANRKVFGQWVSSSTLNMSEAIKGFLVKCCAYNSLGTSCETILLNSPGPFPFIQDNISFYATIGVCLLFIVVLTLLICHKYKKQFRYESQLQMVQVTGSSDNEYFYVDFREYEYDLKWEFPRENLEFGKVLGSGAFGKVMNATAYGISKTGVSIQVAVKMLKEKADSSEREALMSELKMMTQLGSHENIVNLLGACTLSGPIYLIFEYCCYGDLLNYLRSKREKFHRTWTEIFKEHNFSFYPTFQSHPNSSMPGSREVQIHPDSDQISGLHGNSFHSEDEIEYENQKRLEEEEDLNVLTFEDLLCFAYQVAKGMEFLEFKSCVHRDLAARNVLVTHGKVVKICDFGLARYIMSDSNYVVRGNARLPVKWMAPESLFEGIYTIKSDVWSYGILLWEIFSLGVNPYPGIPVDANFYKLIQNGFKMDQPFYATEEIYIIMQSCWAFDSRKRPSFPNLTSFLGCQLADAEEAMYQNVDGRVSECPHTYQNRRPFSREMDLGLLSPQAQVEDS
Procedure, shortened: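 AlphaScreen readout of biotin-poly(Glu4:Tyr1) phosphorylation by 1 ng recombinant FLT3-D835Y. Conditions were 10 μM ATP, 10 mM MgCl2, MOPS pH 7.0, 30 min at 30 °C, EDTA stop. Compounds were serially diluted in duplicate to derive IC50.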

[2] = tested on: THP-1 human acute monocytic leukemia cell with NRAS G12D mutation; experiment: THP-1 cell proliferation assay (counter screen); assay type: cell-based; settings: THP-1 cells, 72 hours treatment, CellTiter96, read-out: anti-proliferation activity THP-1 NRAS N12D, IC50 ranking
Procedure, shortened: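 Viability measured as 490 nm absorbance after 2–4 h with CellTiter96 AQueous One reagent, following 72 h treatment with rising compound concentrations. THP-1 cells, 5000/well, grown in RPMI 1640 with 10% FBS and 0.05 mM 2-mercaptoethanol at 37° C, 5% CO2, plated overnight before dosing.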

IC50 (FLT3-D835Y mutant kinase) [nM] | SMILES | inhibition at 0.03 µM [1] [%] | IC50 ([2]; Homo sapiens) [nM] | IC50 [2] [nM]
1 to 10 | Cn1ncc2ccc(-c3n[nH]c4c3Cc3sc(-c5ccc(CN6CCOCC6)c(F)c5)cc3-4)cc21 [Compound 25, 4-(2-fluoro-4-(3-(1-methyl-1H-indazol-6-yl)-1,4-dihydrothieno[2′,3′:4,5]cyclopenta[1,2-c]pyrazol-6-yl)benzyl)morpholine] | > 50 | > 10000 | –
1 to 10 | CCC(c1ccc(-c2cc3c(s2)Cc2c(-c4ccc5cnn(C)c5c4)n[nH]c2-3)cc1)N1CCOCC1 (stereo not drawn) [Compound 28, 4-(1-(4-(3-(1-methyl-1H-indazol-6-yl)-1,4-dihydro-thieno[2′,3′:4,5]cyclopenta [1,2-c]pyrazol-6-yl)phenyl)propyl)morpholine] | > 50 | > 10000 | –
< 1 | COc1cc(CN2CCOCC2)ccc1-c1cc2c(s1)Cc1c(-c3ccc4cnn(C)c4c3)n[nH]c1-2 [Compound 29, 4-(3-methoxy-4-(3-(1-methyl-1H-indazol-6-yl)-1,4-dihydrothieno [2′,3′:4,5]cyclopenta[1,2-c]pyrazol-6-yl)benzyl) morpholine] | > 50 | > 10000 | –
< 1 | Cn1ncc2ccc(-c3n[nH]c4c3Cc3sc(-c5cncc(C(=O)N6CCOCC6)c5)cc3-4)cc21 [Compound 31, (5-(3-(1-methyl-1H-indazol-6-yl)-1,4-dihydrothieno[2′,3′:4,5]cyclopenta[1,2-c]pyrazol-6-yl)pyridin-3-yl) (morpholino)methanone] | > 50 | 1000 to 10000 | –
< 1 | Cn1ncc2ccc(-c3n[nH]c4c3Cc3sc(-c5ccc(CN6CCOCC6)cc5F)cc3-4)cc21 [Compound 32, 4-(3-fluoro-4-(3-(1-methyl-1H-indazol-6-yl)-1,4-dihydrothieno [2′,3′:4,5]cyclopenta [1,2-c]pyrazol-6-yl)benzyl)morpholine] | > 50 | > 10000 | –
< 1 | Cc1ccc(-c2cc3c(s2)Cc2c(-c4ccc5cnn(C)c5c4)n[nH]c2-3)cn1 [Compound 33, 3-(1-methyl-1H-indazol-6-yl)-6-(6-methylpyridin-3-yl)-1,4-dihydrothieno [2′,3′:4,5]cyclopenta [1,2-c]pyrazole] | > 50 | – | > 10000
1 to 10 | Cn1ncc2ccc(-c3n[nH]c4c3Cc3sc(-c5ccc(C(=O)N6CCCCC6)cc5)cc3-4)cc21 [Compound 34, (4-(3-(1-methyl-1H-indazol-6-yl)-1,4-dihydro-thieno[2′,3′:4,5]cyclopenta [1,2-c]pyrazol-6-yl)phenyl)(piperidin-1-yl) methanone] | > 50 | > 10000 | –
1 to 10 | Cn1ncc2ccc(-c3n[nH]c4c3Cc3sc(-c5cccc(C(=O)N6CCOCC6)c5)cc3-4)cc21 [Compound 37, (3-(3-(1-methyl-1H-indazol-6-yl)-1,4-dihydro-thieno[2′,3′:4,5]cyclopenta [1,2-c]pyrazol-6-yl)phenyl)(morpholino) methanone] | > 50 | > 10000 | –
1 to 10 | Cn1ncc2ccc(-c3n[nH]c4c3Cc3sc(-c5ccc(C(=O)N6CCCC6)cc5)cc3-4)cc21 [Compound 38, (4-(3-(1-methyl-1H-indazol-6-yl)-1,4-dihydro-thieno[2′,3′:4,5]cyclopenta [1,2-c]pyrazol-6-yl)phenyl)(pyrrolidin-1-yl) methanone] | > 50 | > 10000 | –
1 to 10 | Cn1ncc2ccc(-c3n[nH]c4c3Cc3sc(-c5ccc(CN6CCSCC6)cc5)cc3-4)cc21 [Compound 39, 3-(1-methyl-1H-indazol-6-yl)-6-(4-(thiomorpho-linomethyl)phenyl)-1,4-dihydrothieno[2′,3′:4,5] cyclopenta[1,2-c]pyrazole] | > 50 | > 10000 | –
1 to 10 | Cn1ncc2ccc(-c3n[nH]c4c3Cc3sc(-c5cnc(C(=O)N6CCOCC6)nc5)cc3-4)cc21 [Compound 41, (5-(3-(1-methyl-1H-indazol-6-yl)-1,4-dihydrothieno[2′,3′:4,5]cyclopenta[1,2-c]pyrazol-6-yl)pyrimidin-2-yl) (morpholino)methanone] | > 50 | > 10000 | –
1 to 10 | CC(C)n1ncc2ccc(-c3n[nH]c4c3Cc3sc(-c5ccc(CN6CCOCC6)cc5)cc3-4)cc21 [Compound 42, 4-(4-(3-(1-isopropyl-1H-indazol-6-yl)-1,4-dihydro-thieno[2′,3′:4,5]cyclopenta [1,2-c]pyrazol-6-yl)benzyl)morpholine] | > 50 | > 10000 | –
1 to 10 | COc1cc(-c2cc3c(s2)Cc2c(-c4ccc5cnn(C)c5c4)n[nH]c2-3)ccc1C(=O)N1CCOCC1 [Compound 43, (2-methoxy-4-(3-(1-methyl-1H-indazol-6-yl)-1,4-dihydrothieno [2′,3′:4,5]cyclopenta [1,2-c]pyrazol-6-yl)phenyl)(morpholino) methanone] | > 50 | > 10000 | –
< 1 | Cn1ncc2ccc(-c3n[nH]c4c3Cc3sc(-c5ccc(C(=O)N6CCOCC6)c(F)c5)cc3-4)cc21 [Compound 44, (2-fluoro-4-(3-(1-methyl-1H-indazol-6-yl)-1,4-dihydrothieno[2′,3′:4,5]cyclopenta[1,2-c]pyrazol-6-yl)phenyl)(morpholino) methanone] | > 50 | > 10000 | –
< 1 | Cn1ncc2ccc(-c3n[nH]c4c3Cc3sc(-c5cnc(N)nc5)cc3-4)cc21 [Compound 45, 5-(3-(1-methyl-1H-indazol-6-yl)-1,4-dihydrothieno [2′,3′:4,5]cyclopenta[l,2-c]pyrazol-6-yl)pyrimidin-2-amine] | > 50 | > 10000 | –
< 1 | Cn1cc(-c2cc3c(s2)Cc2c(-c4ccc5cnn(C)c5c4)n[nH]c2-3)cc1C(=O)N1CCOCC1 [Compound 46, (1-methyl-4-(3-(1-methyl-1H-indazol-6-yl)-1,4-dihydrothieno[2′,3′:4,5]cyclopenta[1,2-c]pyrazol-6-yl)-1H-pyrrol-2-yl) (morpholino)methanone] | > 50 | > 10000 | –
< 1 | Cn1ncc2ccc(-c3n[nH]c4c3Cc3sc(-c5ccc(S(=O)(=O)N6CCOCC6)cc5)cc3-4)cc21 [Compound 47, 4-((4-(3-(1-methyl-1H-indazol-6-yl)-1,4-dihydro-thieno[2′,3′:4,5]cyclopenta [1,2-c]pyrazol-6-yl)phenyl)sulfonyl) morpholine] | > 50 | > 10000 | –
